{"source": "patent US7396837B2", "about": "“Antitumoral analogs of lamellarins” (Pharma Mar, S.A.U., priority 2002, dated 2008)", "format_in_all_cases": "cell-based", "key": {"SKOV-3": {"tested_on": "SKOV-3", "assay": "SRB colorimetric cell growth inhibition assay, SKOV-3", "settings": "Homo sapiens", "outline": "(§1)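 Growth inhibition (GI), total growth inhibition (TGI, cytostatic) and lethal concentration (LC, cytotoxic) come from an SRB-based colorimetric measure of growth and viability. Data are triplicate-well means ± SD.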"}, "PANC-1": {"tested_on": "PANC-1", "assay": "SRB colorimetric cell growth inhibition assay, PANC-1", "settings": "Homo sapiens, PANC-1, PANC-1", "outline": "(§2)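 Read-out: sulforhodamine B colorimetry of surviving cell mass after continued exposure of human tumour lines to sample. Values are means ± SD of three wells, expressed as GI, TGI or LC.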"}, "K-562": {"tested_on": "K-562", "assay": "SRB colorimetric cell growth inhibition assay, K-562", "settings": "Homo sapiens, K562, K-562", "outline": "as §2"}, "LoVo": {"tested_on": "LoVo", "assay": "SRB colorimetric cell growth inhibition assay, LoVo", "settings": "Homo sapiens, LoVo", "outline": "as §2"}, "IGROV": {"tested_on": "IGROV", "assay": "SRB colorimetric cell growth inhibition assay, IGROV", "settings": "Homo sapiens, IGROV", "outline": "as §2"}, "[1]": {"assay": "SRB colorimetric cell growth inhibition assay, H-MEC-1", "settings": "human, H-MEC-1 cells; H-MEC-1; cell killing (cytotoxic effect); read-out: LC50 H-MEC-1", "outline": "as §1"}, "H-MEC-1": {"tested_on": "H-MEC-1", "assay": "SRB colorimetric cell growth inhibition assay, H-MEC-1", "settings": "Homo sapiens, HMEC-1, H-MEC-1", "outline": "as §1"}, "DU-145": {"tested_on": "DU-145", "assay": "SRB colorimetric cell growth inhibition assay, DU-145", "settings": "Homo sapiens, DU-145, DU-145", "outline": "as §2"}, "LoVo-Dox": {"tested_on": "LoVo-Dox", "assay": "SRB colorimetric cell growth inhibition assay, LoVo-Dox (MDR)", "settings": "Homo sapiens, LOVO-DOX", "outline": "as §2"}, "A-549": {"tested_on": "A-549", "assay": "SRB colorimetric cell growth inhibition assay, A-549", "settings": "Homo sapiens, A549, A-549", "outline": "as §2"}, "IGROV-ET": {"tested_on": "IGROV-ET", "assay": "SRB colorimetric cell growth inhibition assay, IGROV-ET (ET-743 resistant)", "settings": "Homo sapiens, IGROV-ET", "outline": "as §2"}, "LNCaP": {"tested_on": "LNCaP", "assay": "SRB colorimetric cell growth inhibition assay, LNCaP", "settings": "Homo sapiens, LNCaP, LN-caP", "outline": "as §2"}, "SK-MEL-28": {"tested_on": "SK-MEL-28", "assay": "SRB colorimetric cell growth inhibition assay, SK-MEL-28", "settings": "Homo sapiens, SK-MEL-28, MEL-28", "outline": "as §2"}, "HT-29": {"tested_on": "HT-29", "assay": "SRB colorimetric cell growth inhibition assay, HT-29", "settings": "Homo sapiens, HT-29, HT-29", "outline": "as §2"}, "SK-BR-3": {"tested_on": "SK-BR-3", "assay": "SRB colorimetric cell growth inhibition assay, SK-BR-3", "settings": "Homo sapiens, SK-BR-3, SK-BR-3", "outline": "as §2"}}, "data": [{"smiles": "COc1cc(-c2c3c4cc(OC)c(O)cc4oc(=O)c3n3ccc4cc(OC)c(OC)cc4c23)ccc1O", "note": "[Compound 26]", "values": [{"measurement": "GI50", "setting": "SKOV-3; SK-OV-3, SKOV-3, GI=growth inhibition, read-out: GI50 SKOV-3", "value": 0.874, "unit": "µM"}, {"measurement": "LC50 (concentration causing 50% net cell killing)", "setting": "SKOV-3; SK-OV-3, SKOV-3, cell killing (cytotoxic effect), read-out: LC50 SKOV-3", "value": 19.5, "unit": "µM"}, {"measurement": "IC (TGI)", "setting": "SKOV-3; SK-OV-3, SKOV-3, total growth inhibition (cytostatic effect), read-out: TGI SKOV-3", "value": 5.53, "unit": "µM"}, {"measurement": "GI50", "setting": "PANC-1; GI=growth inhibition, read-out: GI50 PANC-1", "value": 1.07, "unit": "µM"}, {"measurement": "CC50", "setting": "PANC-1; cell killing (cytotoxic effect), read-out: LC50 PANC-1", "value": 19.5, "unit": "µM"}, {"measurement": "IC (TGI)", "setting": "PANC-1; total growth inhibition (cytostatic effect), read-out: TGI PANC-1", "value": 8.8, "unit": "µM"}, {"measurement": "GI50", "setting": "K-562; GI=growth inhibition, read-out: GI50 K-562", "value": 0.785, "unit": "µM"}, {"measurement": "CC50", "setting": "K-562; cell killing (cytotoxic effect), read-out: LC50 K-562", "value": 16.1, "unit": "µM"}, {"measurement": "IC (TGI)", "setting": "K-562; total growth inhibition (cytostatic effect), read-out: TGI K-562", "value": 3.41, "unit": "µM"}, {"measurement": "GI50", "setting": "LoVo; GI=growth inhibition, read-out: GI50 LOVO", "value": 1.19, "unit": "µM"}, {"measurement": "CC50", "setting": "LoVo; cell killing (cytotoxic effect), read-out: LC50 LOVO", "value": 19.5, "unit": "µM"}, {"measurement": "IC (TGI)", "setting": "LoVo; total growth inhibition (cytostatic effect), read-out: TGI LOVO", "value": 10, "unit": "µM"}, {"measurement": "GI50", "setting": "IGROV; GI=growth inhibition, read-out: GI50 IGROV", "value": 0.504, "unit": "µM"}, {"measurement": "CC50", "setting": "IGROV; cell killing (cytotoxic effect), read-out: LC50 IGROV", "value": 13, "unit": "µM"}, {"measurement": "IC (TGI)", "setting": "IGROV; total growth inhibition (cytostatic effect), read-out: TGI IGROV", "value": 2.3, "unit": "µM"}, {"measurement": "LC50 (concentration giving 50% net cell killing)", "setting": "[1]", "value": 19.5, "unit": "µM"}, {"measurement": "GI50", "setting": "H-MEC-1; GI=growth inhibition, read-out: GI50 H-MEC-1", "value": 0.798, "unit": "µM"}, {"measurement": "IC (TGI)", "setting": "H-MEC-1; total growth inhibition (cytostatic effect), read-out: TGI H-MEC-1", "value": 19.5, "unit": "µM"}, {"measurement": "GI50", "setting": "DU-145; GI=growth inhibition, read-out: GI50 DU-145", "value": 0.611, "unit": "µM"}, {"measurement": "CC50", "setting": "DU-145; cell killing (cytotoxic effect), read-out: LC50 DU-145", "value": 19.5, "unit": "µM"}, {"measurement": "IC (TGI)", "setting": "DU-145; total growth inhibition (cytostatic effect), read-out: TGI DU-145", "value": 2.94, "unit": "µM"}, {"measurement": "GI50", "setting": "LoVo-Dox; GI=growth inhibition, read-out: GI50 LOVO-DOX", "value": 0.867, "unit": "µM"}, {"measurement": "CC50", "setting": "LoVo-Dox; cell killing (cytotoxic effect), read-out: LC50 LOVO-DOX", "value": 19.5, "unit": "µM"}, {"measurement": "IC (TGI)", "setting": "LoVo-Dox; total growth inhibition (cytostatic effect), read-out: TGI LOVO-DOX", "value": 7.63, "unit": "µM"}, {"measurement": "GI50", "setting": "A-549; GI=growth inhibition, read-out: GI50 A-549", "value": 1.11, "unit": "µM"}, {"measurement": "CC50", "setting": "A-549; cell killing (cytotoxic effect), read-out: LC50 A-549", "value": 19.5, "unit": "µM"}, {"measurement": "IC (TGI)", "setting": "A-549; total growth inhibition (cytostatic effect), read-out: TGI A-549", "value": 8.1, "unit": "µM"}, {"measurement": "GI50", "setting": "IGROV-ET; GI=growth inhibition, read-out: GI50 IGROV-ET", "value": 0.574, "unit": "µM"}, {"measurement": "CC50", "setting": "IGROV-ET; cell killing (cytotoxic effect), read-out: LC50 IGROV-ET", "value": 19.5, "unit": "µM"}, {"measurement": "IC (TGI)", "setting": "IGROV-ET; total growth inhibition (cytostatic effect), read-out: TGI IGROV-ET", "value": 2.08, "unit": "µM"}, {"measurement": "GI50", "setting": "LNCaP; GI=growth inhibition, read-out: GI50 LN-caP", "value": 0.711, "unit": "µM"}, {"measurement": "CC50", "setting": "LNCaP; cell killing (cytotoxic effect), read-out: LC50 LN-caP", "value": 14.7, "unit": "µM"}, {"measurement": "IC (TGI)", "setting": "LNCaP; total growth inhibition (cytostatic effect), read-out: TGI LN-caP", "value": 4.3, "unit": "µM"}, {"measurement": "GI50", "setting": "SK-MEL-28; GI=growth inhibition, read-out: GI50 MEL-28", "value": 2.08, "unit": "µM"}, {"measurement": "CC50", "setting": "SK-MEL-28; cell killing (cytotoxic effect), read-out: LC50 MEL-28", "value": 19.5, "unit": "µM"}, {"measurement": "IC (TGI)", "setting": "SK-MEL-28; total growth inhibition (cytostatic effect), read-out: TGI MEL-28", "value": 7.79, "unit": "µM"}, {"measurement": "GI50", "setting": "HT-29; GI=growth inhibition, read-out: GI50 HT-29", "value": 9.17, "unit": "µM"}, {"measurement": "CC50", "setting": "HT-29; cell killing (cytotoxic effect), read-out: LC50 HT-29", "value": 19.5, "unit": "µM"}, {"measurement": "IC (TGI)", "setting": "HT-29; total growth inhibition (cytostatic effect), read-out: TGI HT-29", "value": 19.5, "unit": "µM"}, {"measurement": "GI50", "setting": "SK-BR-3; GI=growth inhibition, read-out: GI50 SK-BR-3", "value": 0.0966, "unit": "µM"}, {"measurement": "CC50", "setting": "SK-BR-3; cell killing (cytotoxic effect), read-out: LC50 SK-BR-3", "value": 13.6, "unit": "µM"}, {"measurement": "IC (TGI)", "setting": "SK-BR-3; total growth inhibition (cytostatic effect), read-out: TGI SK-BR-3", "value": 1.09, "unit": "µM"}]}]}
